# Test results reported in patent US8685372B2, “Peptides and aptamers for targeting of neuron or nerves” (The Regents of the University of California, priority 2009, dated 2014).
# Experiments:
# [1] = Peptide biodistribution and metabolism (organ fluorescence, LC-MS and MALDI of urine); assay type: in vivo, mice; conditions: mouse, in vivo
# Procedure: (§1) To evaluate the biodistribution of the peptide following systemic administration, organs were harvested from mice treated with SEQ ID NO:4 and fluorescence uptake was evaluated. […] To evaluate the metabolism of the peptide as it passed through the renal system, liquid chromatography-mass spectrometry (LC-MS, Agilent) tracing was used to compare urine obtained from mice injected with SEQ ID NO:25 or SEQ ID NO:31 intravenously versus urine from normal mice spiked with the native SEQ ID NO:25 or SEQ ID NO:31. […] Next, matrix-assisted. laser desorption/ionization (MALDI) was used to evaluate the nature of the modification to the peptide as it was metabolized.
# as §1, with “NO:25 and” for “NO:25 or”, “ID NO:3” for “ID NO:31”, “ID NO:25.” for “ID NO:25 or SEQ ID NO:31.”, “Next, matrix-assisted” for “Next, matrix-assisted.”
# [2] = Generalized toxicity: activity, behavior and weight gain; assay type: in vivo, mice; conditions: single intravenous injection of 15-5,000 nmoles, up to 8 weeks of monitoring
# Procedure: To evaluate generalized toxicity following peptide administration, the generalized activity, behavior and weight gain of mice after a single intravenous injection of 15-5,000 nmoles of SEQ ID NO:25 was studied.
# Female 8 week-old SKH1 mice (average weight 25 g) were treated with varying amounts of SEQ ID NO:25 ranging from 15-5,000 nmoles. Generalized activity, behavior and weight gain were evaluated following single intravenous injection of 15-5,000 nmoles of […] on a daily basis for 3 clays following injection. Thereafter, the mice were monitored three times per week for 8 weeks.
# [3] = tested on: sciatic nerves; assay: In vivo nerve labeling with fluorescently labeled peptides (nerve versus adjacent non-nerve tissue); set-up: species or system mice; conditions: mouse, in vivo
# [4] = tested on: sciatic nerve; assay: Effect of nerve injury (crush, devascularization) on labeling; assay type: in vivo, mice
# Procedure: The ability of peptides to label peripheral nerves following nerve crush injury was evaluated in mice using SEQ ID NO:25. […] (Occasionally, nerve labeling immediately at the site of injury was slightly diminished compared to nerve labeling several centimeters away from the site of injury (FIG. 6D), but this observation was highly variable (FIGS. 6B,F) and not statistically significant (FIG. 6I)).
# Wild type mice were anesthetized and the left sciatic nerve exposed and crushed with microforceps for 3-5 seconds. Muscular contractions during the crush after immediately afterwards were monitored to ensure uniformity of the injury. The skin incision was then closed and mice returned to their cages to recover. At varying times after crush injury, intravenous SEQ ID NO:25 (150 nmoles) was administered. Two to three hours after intravenous SEQ ID NO:25 treatment, the mice were anesthetized, bilateral sciatic nerves exposed and quantitative fluorescence microscopy was used to measure nerve fluorescence. Nerve and adjacent muscle fluorescence were measured using Image J software by measuring standardized boxed regions. Crushed and contralateral control nerve fluorescence were compared for each animal.
# [5] = tested on: dissected nerve tissue; assay: In vitro nerve binding: dissected nerve tissue incubated with peptide; set-up: species or system mice; conditions: 100 nM peptide, one hour incubation
# Procedure: To test the nerve binding affinity of each of the isolated peptide sequences in vitro, dissected nerve tissue was removed from mice and incubated for one hour with 100 nM of each peptide, including a control peptide made up of amino acids that were contained within the various phages selected and sequenced, but in a mixed-up order and designed without repeating any single amino acid except for glycine (which was added to the C-terminus as a flexible linker).
# [6] = tested on: sciatic nerves; assay: In vivo nerve labeling with fluorescently labeled peptides (nerve versus adjacent non-nerve tissue); set-up: species or system mice; conditions: living mice, after wash-out
# Procedure: To test the nerve binding affinity of each of the isolated peptide sequences in vivo, carboxyfluorescein (FAM)-labeled peptides were injected intravenously into living mice. Following a wash-out period, the contrast between nerve and muscle binding of the labeled peptides was evaluated.
# Wild-type albino C57BL6 (Jackson Laboratory) or SKH1 (Charles River Laboratories) mice were treated intravenously with 150 nmoles of fluorescently labeled SEQ ID NO:4 via tail vein injection. Following a 2-3 hour wash-out period for SEQ ID NO:25 or 5-6 hours for SEQ ID NO:31, mice were anesthetized with ketamine and midazolam (80 mg/kg intraperitoneally), a skin incision was made over the dorsal surface of the hind, legs and the sciatic nerves exposed bilaterally. […] Nerves and adjacent non-nerve tissue was delineated with Image J and relative fluorescence was measured. Following background subtraction using dark current measurements and measurements of a standard, the ratios of peptide binding to nerve versus adjacent non-nerve tissue were calculated.
# [7] = tested on: sciatic nerve conduction; conditions: mouse, in vivo
# Procedure: Maximal compound muscle action potential amplitude (CMAP) and nerve conduction latency were measured as described in Osuchowski et al, Noninvasive model of sciatic nerve conduction in healthy and septic mice: reliability and normative data, Muscle Nerve, 2009), Briefly, control female 8 week-old SKH1 mice and mice treated with SEQ ID NO:25 were anesthetized with ketamine-midazolam and placed in a prone position. CMAP potentials were evoked (Grass stimulator) with stimulating electrode (Medtronics) placed 2 mm lateral to the midline. The recording electrode was an ear-clip electrode (Life-tech.com) placed on the digits of the hind foot and the reference electrode was placed on the heel of the foot. Maximal CMAPs were generated by gradually increasing the stimulation (5-10V, 1 pulse per second, paired, 0.5-2 sec duration) until a maximal, artifact free tracing was obtained. The CMAP traces were captured on a digital oscilloscope (Tektronic). Nerve conduction latency was measured from the beginning of the stimulation to the start of the upslope. CMAP amplitude was measured from the start of the upslope to the peak.
# [8] = tested on: sciatic nerve; assay: Histology: localization of binding in nerves of thy1-YFP transgenic mice; assay type: in vivo; conditions: mouse, in vivo
# Text: To evaluate the localization of SEQ ID NO:4 binding in nerves, we treated thy1-YFP transgenic mice whose axons are genetically encoded with YFP under a neuron specific promoter (Feng et al, Imaging neuronal subsets in transgenic mice expressing multiple spectral variants of GFP. Neuron, 2000) with SEQ ID NO:31. […] These deeper nerve structures were not easily seen either with brightfield (FIG. 5A, insert) or YFP (FIG. 5B, insert) imaging. To evaluate the localization of SEQ ID NO:4 binding on a cellular level, we imaged cryosections (3-5 μm) of nerves and attached muscles from thy1-YFP animals treated with SEQ ID NO:31.
# [9] = tested on: sciatic nerves; assay: Dose response of peptide binding (nerve to muscle contrast ratio); assay type: in vivo, mice; conditions: 5,000 nmoles, at 2 hours
# Procedure: To determine the dose response of peptide binding, the nerve to muscle contrast ratio was measured as a function of the amount of peptide administered (FIG. 4D).
# Female 8 week-old SKH1 mice (average weight 25 g) were treated with varying amounts of SEQ ID NO:25 ranging from […]. After a 2 hour washout period, mice were sacrificed and sciatic nerves exposed. Nerves and adjacent non-nerve tissue were delineated with Image 3 and relative fluorescence was measured. Quantification of fluorescence was then performed following subtraction of dark current and normalizing to a standard. For the mice injected with 5,000 nmoles of SEQ ID NO:4, it was noted that background fluorescence was still very high at 2 hours, making the contrast ratio low even though the absolute nerve fluorescence was high. For these mice, the skin incisions were repaired and the mice were allowed to awaken from anesthesia, then at 6 hours following initial SEQ ID NO:4 administration, the mice were sacrificed and the sciatic nerves exposed and analyzed as above.
sequence,measurement,setting,value
"NTQTLAKAPEHT (peptide that specifically binds to a neuron, nerve, or component of either) [SEQ ID NO:4]",biodistribution following systemic administration (organ fluorescence uptake),[1],accumulated in the kidney and was excreted into the urine
same,"generalized activity, behavior and weight gain versus uninjected/control mice",[2],similar
same,labeling of nerves in the central nervous system (CNS),[3],no evidence of labeling
same,nerve labeling after injury,[4]; 3 days following injury,diminished
same,nerve labeling compared to contralateral control nerve,[4]; 7 days after crush injury,recovers
same,nerve fluorescence as a function of distance from crush site,"[4]; mouse, in vivo",does not significantly diminish
same,uptake/binding to dissected nerve tissue compared to no peptide or control peptide,[5],two-fold increase over control to no difference from control
same,nerve fluorescence relative to adjacent non-neural tissue,"[6]; FAM-labeled peptide intravenously, exposed sciatic nerves",4 fold
same,nerve to muscle contrast,[6]; FAM-labeled peptides intravenously,best nerve to non-nerve contrast
same,shape of the CMAP curve versus control animals,[7],similar
same,colocalization of labeling with myelin or axons,[8],does not appear to colocalize
same,colocalization of labeling with myelin or axons,[8]; listed as SEQ ID NO: 4,does not colocalize
same,nerve to muscle contrast ratio,[9],low
